# How the values were obtained:
# hepatocytes = conditions: cited from earlier work
# [1] = system: breast cancer and liver cancer; conditions: animal studies; cited from earlier work
Structure (SMILES),Protection of hepatocytes against ethanol-induced cell cytotoxicity (hepatocytes),Solubility in ethanol (Solubility in ethanol),Antitumor activity [1]
"CCNC(=O)CC[C@H](N)C(=O)O [L-theanine, gamma-glutamylethylamide]",significantly protect hepatocytes,ethanol soluble,
"Oc1ccc(C=Cc2cc(O)cc(O)c2)cc1 [Resveratrol, resveratrol]",,ethanol soluble,
"COc1cc(/C=C/C(=O)O)ccc1O [Ferulic acid, ferulic acid]",,,direct antitumor activity
